The values below come from publication PMC4113456, “Atypical Signaling and Functional Desensitization Response of MAS Receptor to Peptide Ligands” (PLoS ONE, 2014).

Series [1] deals with T1, MAS (Homo sapiens, UniProt P04201).
T1 construct: expressed in transfected cells
T1 sequence (P04201 1-325): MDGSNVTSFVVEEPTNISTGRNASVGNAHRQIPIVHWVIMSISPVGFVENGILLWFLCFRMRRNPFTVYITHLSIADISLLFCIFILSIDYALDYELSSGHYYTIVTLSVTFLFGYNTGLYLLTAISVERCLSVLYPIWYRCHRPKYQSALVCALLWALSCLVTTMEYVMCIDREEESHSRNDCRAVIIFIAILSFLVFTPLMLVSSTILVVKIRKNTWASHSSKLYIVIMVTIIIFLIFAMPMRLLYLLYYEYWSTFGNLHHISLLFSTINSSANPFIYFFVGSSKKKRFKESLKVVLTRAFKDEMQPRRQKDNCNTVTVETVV
More on the design: method as in ref [3] (a number printed in a supplementary file, which may have a reference list of its own: not looked up in the article's list). The note with it: ref [3]; cited from earlier work.

For series [2], the target named is T1, MAS. The series can be described thus: FLIPR calcium assay, induced myc-tagged WT MAS HEK293 stable cell line. It counts as cell-based. As to conditions: WT MAS.
Protocol: The assay was performed using FLIPR Calcium 5 assay kit (Molecular Devices, Sunnyvale, CA). For calcium measurements, cells at a density of 125,000 cells/well in 100 µl medium were seeded onto a 96-well clear bottom black cell culture plate that was pre-coated with poly-L-lysine. In the calcium assays the cell density of 125,000 cells/well was consistently maintained to minimize variability between independent experiments. The cells were seeded in induction media to induce MAS expression or in complete media for negative controls. The plate was maintained in a cell culture incubator for 26–28 h. The cells were then serum starved for 2 h by replacing the medium with 100 µl of serum free DMEM. In the case of pre-treatment with pan-inhibitor of G protein signaling, BIM-46187, the cells were initially serum starved for 1 h by replacing the medium with 50 µl of serum free DMEM. After 1 h, 50 µl of BIM-46187 was added to the cells to a final concentration of 25 µM and treated for another 1 h. Following serum starvation, 100 µl of calcium sensitive dye along with 2x (2.5 mM final concentration) probenecid (Life Technologies, Grand Island, NY) was added to the cells. During this step, AR-inverse agonist or BIM-46187 was also added at desired concentrations to the calcium dye preparation in case of experiments where cells were pre-treated with these inhibitors. The cells were maintained for one hour in the cell culture incubator. Following this, the 96-well plate containing cells loaded with calcium dye and a U-bottom 96-well plate containing ligands at 5x the desired final concentration in D-PBS (1.47 mM KH2PO4, 138 mM NaCl, 2.67 mM KCl, 8.1 mM Na2HPO4, pH 7.3) were allowed to equilibrate for 15 min on a FlexStation 3 instrument (Molecular Devices, Sunnyvale, CA) at 37°C. The plates were further equilibrated on the instrument for 5 min with the lids removed from the plates. The instrument was programmed in FLEX mode to add ligands (50 µl at 5x concentration) to the cells and to monitor the fluorescence before and after adding the ligands. In re-stimulation and antagonism assays the instrument is programmed to add 35 µl of first ligand followed by addition of the second ligand (35 µl) after 10 min. […] Therefore, when using 5x ligand stock the maximum AR-agonist concentration that could be tested was 10 µM.
In the calcium assays, the maximum response and minimum response values in relative fluorescence units (RFU) were extracted by subtracting the corresponding baseline value wherein baseline is defined as the average fluorescence of all time points before addition of ligand.
The kinetic parameter t1/2 (time taken to reach half of the maximum response) was determined using SoftMax Pro software supplied with the FlexStation 3 instrument (Molecular Devices, Sunnyvale, CA).
For re-stimulation assays, the data is expressed as the percentage of maximum agonist stimulation to allow for ready comparison between individual experiments. […] For all the assays, the EC50 and IC50 values were estimated by fitting the data to a three parameter dose response using GraphPad Prism software (GraphPad, La Jolla, CA).
The target of series [3] is T1, MAS. More on the design: method as in ref [4] (a number printed in a supplementary file, which may have a reference list of its own: not looked up in the article's list). The note with it: ref [4]; cited from earlier work.

As to `CC[C@H](C)[C@H](NC(=O)[C@H](Cc1ccc(O)cc1)NC(=O)[C@@H](N)C(C)C)C(=O)N[C@@H](Cc1cnc[nH]1)C(=O)N1CCC[C@H]1C(=O)N[C@@H](Cc1ccccc1)C(=O)O` [AngIV / Ang(3–8), Angiotensin IV], at MAS [1], the “Type (Arachidonic acid release assay)” value is recorded as “Agonist”. The “EC50, Calcium assay” value at MAS [2] (induced cells) is recorded as “cbd”. The “t1/2, Calcium assay” value on MAS [2] (t1/2 at 1000 µM (1 mM) ligand concentration) was 10.4 ± 0.3 s.

In the case of “Angioprotectin: physiological ligand, sequence PEVYIHPF”, the “Effect in aortic rings” value with MAS [3] was “Vasodilator effect in aortic rings”.
